From article PMC5589893, “Identification of Aspergillus fumigatus UDP-Galactopyranose Mutase Inhibitors” (Scientific Reports, 2017)
Read-outs that look alike come from different tables or passages of the source.

Assays:
[1] = molecular target: T1, A. fumigatus UGM (Aspergillus fumigatus, UniProt Q4W1X2); test: biochemical; format: binding; conditions: read-out: Normalized anisotropy (%)
T1 construct: 8x His-tag (TEV-cleavable) (cleaved yes); made in house; host or cells: E. coli BL21 Turbo (DE3)
T1 sequence (Q4W1X2 whole entry): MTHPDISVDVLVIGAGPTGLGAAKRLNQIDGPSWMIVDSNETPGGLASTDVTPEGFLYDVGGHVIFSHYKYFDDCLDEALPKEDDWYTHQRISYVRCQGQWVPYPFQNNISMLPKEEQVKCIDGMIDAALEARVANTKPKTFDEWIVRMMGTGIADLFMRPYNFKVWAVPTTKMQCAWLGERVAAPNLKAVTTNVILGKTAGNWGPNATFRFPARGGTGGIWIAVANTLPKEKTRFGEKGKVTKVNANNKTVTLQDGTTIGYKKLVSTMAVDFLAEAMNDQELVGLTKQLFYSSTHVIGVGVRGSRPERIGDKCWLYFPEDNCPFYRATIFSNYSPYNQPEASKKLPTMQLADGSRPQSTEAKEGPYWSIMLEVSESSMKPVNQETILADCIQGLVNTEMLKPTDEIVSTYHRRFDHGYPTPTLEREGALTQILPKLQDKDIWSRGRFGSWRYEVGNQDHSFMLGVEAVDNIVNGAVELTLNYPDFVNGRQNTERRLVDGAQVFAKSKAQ
Method: High-throughput screening of the Spectrum Collection library using the FP assay with the ADP-TAMRA[22] probe was performed at the Virginia Tech Center for Drug Discovery Screening Laboratory. 384 well plates (Greiner 784900) were used and the reaction volume was 15 µL using 25 mM HEPES buffer (pH 7.0). For the screening, 30 nM of ADP-TAMRA with 6.7 µM UGM (based on the Bradford assay) and 20 µM of library compound were used, with a final DMSO concentration of 2%. Fluorescence polarization measurements were performed with excitation at 544 nm and emission at 584 nm, using a wavelength cutoff of 570 nm. Anisotropy measurements were performed after 30 and 120 minutes of incubation at 25 °C. Anisotropy values were normalized to the values obtained in the negative control sample: UGM, ADP-TAMRA, and DMSO (high anisotropy values). The positive control consisted of ADP-TAMRA and DMSO (low anisotropy values). The Z prime (Z′) value was determined using equation (1) where, σN,P and μN,P represent the standard deviation and the mean value the of the negative and positive controls respectively.1 Z′=1−3(σN+σP)/|μN−μP|

[2] = molecular target: T1, A. fumigatus UGM; test: biochemical; format: biochemical; conditions: for Concentration effect: UPLC; for inhibition at 200 µM: read-out: Inhibition > 50 %; for enzyme activity at which the IC50 curve plateaued: 3 min; for Inhibition of product formation, concentration dependence: UPLC at 20 and 200 µM compound, 2% DMSO
Method: (§1) The reaction was quenched with the addition of 70 µL acetonitrile. […] Samples were run at a flow rate of 0.5 mL/min for 5 min. IC50 was also determined by following NADPH oxidation at 340 nm. […] Data was analyzed using KaleidaGraph software. […] Global fitting was performed with Graphpad Prims 6 software (La Jolla, CA).

[3] = molecular target: T1, A. fumigatus UGM; test: ADP-TAMRA fluorescence anisotropy binding and competition assay; conditions: for Kd: decrease in anisotropy of UGM (6.7 µM) - ADP-TAMRA (30 nM) complex, read-out: KD, competitive binding against ADP-TAMRA
Method: Our group previously developed a binding assay to identify inhibitors of flavoenzymes that use NADP(H) as substrate. Since UGM also used NADPH for reduction, we determined whether this compound bound to UGM. This was done by taking the ADP-TAMRA[22] chromophore to a final concentration of 30 nM in 25 mM HEPES buffer, pH 7.5, mixed with various concentrations of UGM (0–300 µM, based on Bradford). To determine if the chromophore was binding to the active site of UGM, the competitive binding of UDP (0–1 mM) and NADP^+ (0–10 mM) was calculated by measuring the decrease in anisotropy of the UGM (6.7 µM) - ADP-TAMRA (30 nM) complex. At each concentration of ligand, the solution was incubated for 10 min at room temperature. The sample was excited at 544 nm and the emission recorded at 584 nm using a wavelength cutoff of 570 nm.

[4] = test system: A. fumigatus; test: Congo red susceptibility assay; format: cell-based, Aspergillus fumigatus; conditions: 100 µM compound with congo red (0.5 and 1 mg/mL), 48 h, 37 °C
[5] = test system: UDP-glucuronosyltransferases; conditions: cited from earlier work
[6] = test system: A. fumigatus; test: Toxicity study, growth in PDA medium at 37 °C; format: cell-based, Aspergillus fumigatus
[7] = molecular target: T1, A. fumigatus UGM; test: biochemical; format: binding
Method: Binding of inhibitors to UGM was measured with an Auto-ITC 200 ITC instrument. UGM was dialyzed in 50 mM potassium phosphate buffer, pH 7.0, for 2 h at 4 °C. In all cases, ligands were dissolved in dialysis buffer and protein and ligand were filtered with a […] membrane prior to loading. […] Inhibitor concentration in the syringe was 2 mM (2% DMSO), except for chrysin where the concentration was 600 µM (4% DMSO). […] Thermodynamic parameters were determined from ITC results using Microcal Origin version 7.0 (OriginLab) with the “ITC custom” add-on installed.

[8] = test system: A. fumigatus; test: Thermotolerance study, growth in PDA at 50 °C; format: cell-based, Aspergillus fumigatus; conditions: 1000 µM compound, 48 h at 50 °C, vs reference
[9] = molecular target: T2, UGM (Aspergillus fumigatus, UniProt Q4W1X2); test: ThermoFAD melting temperature assay; format: binding; conditions: for Effect on Tm of UGM: vs UGM alone
T2 construct: 8x His-tag (TEV-cleavable) (cleaved yes); made in house; host or cells: E. coli BL21 Turbo (DE3)
T2 sequence (Q4W1X2 whole entry): as above
Method: The melting temperature[25] of UGM was determined by measuring the FAD fluorescence as a function of temperature (20–90 °C, 1 °C step) following the reported ThermoFAD procedure. The reaction mix consisted of 20 µL of 1 mg/mL UGM, 2% DMSO in 50 mM potassium phosphate buffer, pH 7.0. As a reference and positive control, the Tm was calculated in the presence DMSO and UDP (10 mM). Different concentrations of inhibitors were added in the range of 0–1 mM at a final DMSO concentration of 2% in the above-mentioned buffer. All experiments were done in triplicate.

[10] = molecular target: T1, A. fumigatus UGM; test: biochemical; format: biochemical; conditions: for Inhibition of NADPH oxidation: absence of UDP-Galf
Method: as §1

[11] = Precipitation / solubility observed in inhibition assays; format: physicochemical
[12] = 20 µM compound, 2% DMSO, 30 nM ADP-TAMRA, normalized to negative control
[13] = inhibition at 200 µM vs 20 µM compound
[14] = product formation by UPLC with 200 µM compound, 20 µM UDP-Galf, 10 mM sodium dithionite
[15] = 20, 100 and 1000 µM compound, 2% DMSO, 1 mg/mL UGM

Question: For `O=C(O)C1=CC(=C(c2ccc(O)c(C(=O)O)c2)c2ccc(O)c(C(=O)O)c2)C=CC1=O` [Aurin tricarboxylic acid], which remaining activity at 20 µM [1, 12] is on record?
Answer: 14%

Question: What about the Concentration effect [2, 13] of the same compound?
Answer: -

Question: And the inhibition at 200 µM [2, 14]?
Answer: < 50%

Question: For `O=c1c(O)c(-c2ccc(O)cc2)oc2cc(O)cc(O)c12` [Kaempferol], which remaining activity at 20 µM [1, 12] is on record?
Answer: 38%

Question: What about the “enzyme activity at which the IC50 curve plateaued” value [2] of the same compound?
Answer: around 70%

Question: And the Concentration effect [2, 13]?
Answer: +

Question: And the inhibition at 200 µM [2, 14]?
Answer: > 50%

Question: And the “anisotropy at which the KD curve plateaued” value ([3]; 30 nM ADP-TAMRA)?
Answer: around 50%

Question: What does the source list for `Cc1ccc(C(=O)Nc2ccc(S(=O)(=O)O)c3cc(S(=O)(=O)O)cc(S(=O)(=O)O)c23)cc1NC(=O)c1cccc(NC(=O)Nc2cccc(C(=O)Nc3cc(C(=O)Nc4ccc(S(=O)(=O)O)c5cc(S(=O)(=O)O)cc(S(=O)(=O)O)c45)ccc3C)c2)c1` [Suramin hexasodium, reference compound]?
Answer: remaining activity at 20 µM [1]: 41%; Concentration effect [2, 13]: -; inhibition at 200 µM [2]: < 50%

Question: Which Kd [3] does the source give for `Nc1ncnc2c1ncn2[C@@H]1O[C@H](COP(=O)(O)OP(=O)(O)O)[C@@H](O)[C@H]1O` [ADP] here?
Answer: 124 ± 16 µM

Question: What does the source list for `O=C1C[C@@H](c2ccc(O)cc2)Oc2cc(O)cc(O)c21` [(2S)-naringenin]?
Answer: Growth decrease with congo red [4]: ~ 30%; Effect on UDP-glucuronosyltransferases [5]: inhibitory effect; A. fumigatus toxicity ([6]; 1000 µM): no A. fumigatus toxicity; A. fumigatus toxicity under optimal growth conditions ([6]; 600 and 1000 µM, 24-48 h): not toxic; Kd [7]: 65 ± 13 µM; T•∆S ([7]; ITC, 25 °C): 0.9 ± 0.3 kcal/mol; ∆G ([7]; ITC, 25 °C): -5.7 ± 1.0 kcal/mol; ∆H ([7]; ITC, 25 °C): -4.8 ± 1.0 kcal/mol; remaining activity at 20 µM [1, 12]: 23%; Delay in colony development [8]: ~ 30%; Increase of Tm of UGM [9, 15]: ~ 2.7 °C; Inhibition of product formation, concentration dependence [2]: concentration dependent potency; Concentration effect [2, 13]: +; inhibition at 200 µM [2]: > 50%; Type of Inhibition ([10]; NADPH oxidation at different concentrations of inhibitor and NADPH): competitive against NADPH; Inhibition of NADPH oxidation [10]: inhibited NADPH oxidation

Question: For `O=c1ccn([C@@H]2O[C@H](COP(=O)(O)OP(=O)(O)O)[C@@H](O)[C@H]2O)c(=O)[nH]1` [UDP, reference compound], which “T•∆S” value ([7]; ITC, 25 °C) is on record?
Answer: 10.5 ± 0.3 kcal/mol

Question: What about the “∆G” value ([7]; ITC, 25 °C) of the same compound?
Answer: -7.1 ± 0.1 kcal/mol

Question: And the “∆H” value ([7]; ITC, 25 °C)?
Answer: 3.3 ± 0.1 kcal/mol

Question: What about the Kd ([7]; ITC, 25 °C, read-out: KD) of the same compound?
Answer: 5.4 ± 0.8 µM

Question: What about the “Shift of Tm of UGM” value ([9]; 10 mM UDP) of the same compound?
Answer: 3 °C

Question: And the Kd [3]?
Answer: 10 ± 1 µM

Question: For `CS(=O)(=O)Nc1ccc([N+](=O)[O-])cc1Oc1ccccc1` [Nimesulide, reference compound], which remaining activity at 20 µM [1] is on record?
Answer: 28%

Question: What about the Concentration effect [2, 13] of the same compound?
Answer: -

Question: What about the inhibition at 200 µM [2] of the same compound?
Answer: < 50%

Question: Which results are given for `O=C(O)c1cc(/N=N/c2ccc(O)c(C(=O)O)c2)ccc1O` [Olsalazine sodium, reference compound]?
Answer: remaining activity at 20 µM [1]: 48%; Concentration effect [2, 13]: -; inhibition at 200 µM [2]: < 50%

Question: What does the source list for `O=c1cc(-c2ccccc2)oc2cc(O)cc(O)c12` [Chrysin]?
Answer: Binding to UGM detected by ITC [7]: nor was binding detected; remaining activity at 20 µM [1, 12]: 48%; Effect on Tm of UGM [9, 15]: no effect on Tm; IC50 [2]: 24 ± 4 µM; enzyme activity at which the IC50 curve plateaued ([2]; UPLC IC50 curve saturating below full inhibition (chrysin at ~30 µM)): ~ 35%; Inhibition of product formation, concentration dependence [2]: concentration dependent potency; Concentration effect [2, 13]: +; inhibition at 200 µM [2]: > 50%; Concentration above which compound precipitated ([11]; with 2% DMSO): above 100 µM; IC50 [10]: > 1000 µM; Inhibition of NADPH oxidation [10]: did not inhibit NADPH oxidation

Question: With `NC(=O)c1ccc[n+]([C@@H]2O[C@H](COP(=O)([O-])OP(=O)(O)OC[C@H]3O[C@@H](n4cnc5c(N)ncnc54)[C@H](OP(=O)(O)O)[C@@H]3O)[C@@H](O)[C@H]2O)c1` [NADP^+, reference compound] as the compound, how does the “T•∆S” value ([7]; ITC, 25 °C) read?
Answer: -8.4 ± 0.7 kcal/mol

Question: And the “∆G” value ([7]; ITC, 25 °C)?
Answer: -4.6 ± 0.3 kcal/mol

Question: What about the “∆H” value ([7]; ITC, 25 °C) of the same compound?
Answer: -13.0 ± 0.3 kcal/mol

Question: And the Kd ([7]; ITC, 25 °C, read-out: KD)?
Answer: 413 ± 24 µM

Question: And the Kd [3]?
Answer: 92 ± 13 µM

Question: Which results are given for `Cc1nc(-c2ccc(OCC(C)C)c(C#N)c2)sc1C(=O)O` [Febuxostat, reference compound]?
Answer: remaining activity at 20 µM [1, 12]: 39%; Effect on Tm of UGM [9, 15]: reduced the Tm; Inhibition of product formation, concentration dependence [2]: concentration dependent potency; Concentration effect [2, 13]: +; inhibition at 200 µM [2]: > 50%

Question: With `O=C1C[C@@H](c2ccc(O)cc2)Oc2cc(O)ccc21` [liquiritigenin] as the compound, how does the “Inhibition of UGM by derivatives” value [2] read?
Answer: no inhibitory effect

Question: For `O=C1C[C@H](c2ccc(O)cc2)Oc2cc(O)cc(O)c21` [R enantioniomer of naringenin, (2 R)-naringenin], which “Inhibition of UGM by derivatives” value [2] is on record?
Answer: no inhibition

Question: With `O=C(NCCO[N+](=O)[O-])c1cccnc1` [Nicorandil, reference compound] as the compound, how does the remaining activity at 20 µM [1] read?
Answer: 27%

Question: What about the Concentration effect [2, 13] of the same compound?
Answer: -

Question: And the inhibition at 200 µM [2]?
Answer: < 50%

Question: With `COc1cc(C)c(C(=O)Oc2cc(C)c(C(=O)O)c(O)c2C)c(OC)c1C` [Diffractaic acid] as the compound, how does the remaining activity at 20 µM [1, 12] read?
Answer: 37%

Question: And the Concentration effect [2, 13]?
Answer: -

Question: And the inhibition at 200 µM [2, 14]?
Answer: < 50%

Question: What does the source list for `N#CC(c1ccc(Cl)cc1)c1c(Cl)cc(-n2ncc(=O)[nH]c2=O)cc1Cl` (centres unmarked) [Diclazuril, reference compound]?
Answer: remaining activity at 20 µM [1, 12]: 37%; Effect on Tm of UGM [9, 15]: reduced the Tm; Inhibition of product formation, concentration dependence [2]: concentration dependent potency; Concentration effect [2, 13]: +; inhibition at 200 µM [2, 14]: > 50%

Question: What does the source list for `O=c1oc2c(O)c(O)cc3c(=O)oc4c(O)c(O)cc1c4c23` [Ellagic acid]?
Answer: remaining activity at 20 µM [1, 12]: 50%; Concentration effect ([2]; ellagic acid assayed at 6 and 12 µM with 2% DMSO due to low solubility): -; Solubility [11]: low solubility
